The test system of one data set is Huh7 cells. Kind of data set: TC50 MTS cell viability assay with Huh7 cells (48 h). The data set is classed as cell-based. As to conditions: Homo sapiens, Huh-7. The text has this: Plating Cells: Huh7 cells (a hepatocellular carcinoma cell-line; these cells can be obtained from the Japanese Collection of Research Bioresources (JCRB), Osaka, Japan) were used to determine the TC50 for representative compounds of the present invention. Briefly, Huh7 cells were passaged when they reached about 70% confluency. The cells were counted using a hemocytometer following dilution of the cells to about 0.5×10^5 cells per mL in DMEM with 10% fetal bovine serum (FBS). The cells were plated in a clear 96-well plate (about 5,000 cells in 100 μL per well). The cells were allowed to attach for about 24 hours at 37° C.
Treating of the cells: The DMEM media without phenol red containing 2% FBS was pre-warmed to 37° C. […] Following dilution, the final DMSO concentration was about 0.5% (v/v). […] The plates were then returned to the incubator and incubated with the cells for 48 h at 37° C.
(§1) The 96-well plate with cells incubated with test compound was removed from the 37° C. incubator. The appropriate amounts of the MTS and PMS reagents were removed from the kit and mixed well. The reagents were maintained in the dark due to their light sensitivity. […] The solutions were mixed completely in the wells prior to each reading.

The subject of a further data set is HEPG2. Kind of data set: TC50 assay in different human cell lines (96 h), HEPG2. Particulars: about 96 h, MTS assay. The data set is classed as cell-based. As to the method:
as §1
Plating Cells: Huh7, HEPG2, HEK293, MCF-7, or BxPC3 cells (which can be obtained from American Type Culture Collection, ATCC) were passaged when they were about 70% confluent. […] The cells following passaging were allowed to attach for about 24 hours at 37° C.
The plates were then returned to the incubator, and cells incubated for about 96 h at 37° C.
MTS Assay: Assay was carried out as described above.
(In general: Tetrazolium dyes change colour on reduction, which living cells bring about.)

Another data set relates to CD-1 ICR mice. As to the kind of experiment: In vivo toxicology assessment. The procedure: All in vivo toxicology assays were performed with CD-1 ICR mice (female, 4-6 week old; 20-30 gram body weight). Groups of one to five mice were treated at each dose level. In one study, compound 1 was prepared at concentrations ranging from 0.1 mg/mL to 30 mg/mL in dimethyl sulfoxide (DMSO) and 200 μL of each solution was administered via oral gavage to mice at final doses of 0.67, 2.0, 6.7, 20, 67 and 200 mg/kg.
A second study was carried out using a different vehicle. As above, CD-1 ICR mice (female, 4-6 week old; 20-30 gram body weight) were used. Groups of one to five mice were treated at each dose level. Compound 1 was prepared in Formulation I (5% DMSO/10% Solutol/17% (2-Hydroxypropyl)-β-cyclodextrin in aqueous solution) at concentrations ranging from 0.03 mg/mL to 1.0 mg/mL, and administered orally. Briefly, mice were treated with 200 μL of compound 1 in Formulation I via oral gavage at final doses of 2.4 mg/kg and 8.0 mg/kg. In a parallel study, compound 1 was administered intravenously. Briefly, mice were injected with 100 μL of compound 1 in Formulation I at final doses ranging from 0.12 mg/kg to 4.0 mg/kg.

The structures appear in SMILES notation.

Usually CC50 stands for the concentration at which the toxic effect on the cells reaches its halfway point. Low readings indicate harm at low concentration, high ones better tolerance by the cells. On to `O=C(Nc1ccn(C2O[C@H](CO)[C@@H](O)C2(F)F)c(=O)n1)c1ccc2c(c1)OCO2` (stereo partly drawn) [Compound 1, N-(1-((4R,5R)-3,3-difluoro-4-hydroxy-5-(hydroxymethyl)tetrahydrofuran-2-yl)-2-oxo-1,2-dihydropyrimidin-4-yl)benzo[d][1,3]dioxole-5-carboxamide], for which the cytotoxic concentration (CC50) in the data set on Huh7 cells stood at 473 ± 74 µM; with HEPG2 it was 2.81 µM. The tolerability / toxicity entry in the data set with CD-1 ICR mice (IV in Formulation I, 0.12 to 4.0 mg/kg, 48 hour observation) is “well-tolerated and no toxicity was observed”; with CD-1 ICR mice (oral gavage in DMSO, 0.67-200 mg/kg, 24 hour observation), “well-tolerated and no toxicity was observed”; with CD-1 ICR mice (oral gavage in Formulation I, 2.4 and 8.0 mg/kg, 48 hour observation), “well-tolerated and no toxicity was observed”.

These data come from US10000521B2 (priority 2013, dated 2018).
